Series [1] can be described thus: in vitro. The class given is in vitro ADME, mouse. The protocol:
Protein Binding in Plasma: The donor side of dialysis inserts were filled with 200 μL plasma (human and mouse; source BioDuro, San Diego, California, United States of America) containing 5 μM drug and 0.5% of DMSO and the receiver side of the dialysis inserts was filled with 350 μL of PBS buffer (100 mM, pH 7.4). The prepared dialysis apparatus was placed in a shaker (37° C., 100 rpm) for 5 hours. Two tubes with plasma containing 5 μM experimental compound were also prepared for stability test: one tube was placed in the […] for 5 hours and the other tube was placed in shaker ([…], 100 rpm) for 5 hours. Samples were collected from the donor and receiver sides of each dialysis insert. The same volume of blank plasma was added to buffer samples and blank buffer to plasma samples to make sure all sample mixtures contain 50% plasma and 50% buffer. 50 μL of each sample was mixed with 300 μL of acetonitrile containing 25 ng/ml internal standard (propranolol). All samples were vortexed for 1 minute and then centrifuged at 4000 rpm, 4° C. for 15 min. 100 μL of the supernatant was transferred to 0.65 ml tube for LCMS analysis. The amount of compound was determined on the basis of the peak area ratio (compound area to internal standard area) for the two sides, and protein binding is determined using the following equations: % Bound=100×([Area Ratio of Donor]5h*5−[Area Ratio of Receiver]5h)/([Area Ratio of Donor]5h*5). The percentage remaining at 37° C. after 5 hours was calculated on the basis of the amount measured at 0° C. after 5 hours.

For series [2], the target named is T1, HIV I reverse transcriptase (Human immunodeficiency virus type 1 group M subtype B, UniProt P03366).
T1 construct: purchased Roche
The series is described as follows: Reverse transcriptase inhibition assay (Roche kit, ELISA). Format: biochemical. The protocol:
NNRTI assay methods: Inhibition of HIV I reverse transcriptase was assessed via a kit from Roche (Indianapolis-Marion County, Indiana, United States of America) using the manufacture's protocol (500 μM final reverse transcriptase reaction amount). […] DMSO concentrations were kept the same for all dilutions used within an assay (0.05%). Final compound concentrations ranged from 5000 nM-0.05 nM with 2-fold serial dilutions. 96-well plates were set up with 20 μL compound dilution, 20 μL reverse transcriptase, and 20 μL template/nucleotides and incubated at 37° C. 5% CO2 for 1 hr in a reaction plate. 50 μL of each reaction was then transferred to a streptavidin conjugated 96-well plate and an ELISA assay was run based on manufacture's protocol. All compounds were tested in sextuplicate, with single wells of efavirenz dilutions on each plate.
(In general: In an ELISA, binding on a coated surface is turned into a signal by an enzyme label.)

The test system of series [3] is Caco-2 cells. The series is described as follows: Caco-2 permeability. The class given is in vitro ADME. As to conditions: 10 μM. The method, then:
(§1) Caco-2 Permeability: Caco-2 cells (ATCC®, Manassas, Virginia, United States of America) were grown on 24-well (pore size: 0.4 μm) polycarbonate filters. The monolayers were pre-incubated with pre-warmed HBSS (Hank's balanced salt solution) containing 2.5% HEPES buffer (pH 7.4) for 0.5 h at 37° C. After pre-incubation, the buffer was removed, and the experimental compounds were added to reach a final concentration of 10 μM. 2% bovine serum albumin (BSA) was added to the receiver buffer for the study. The total volume was 400 μL for the apical (A) side and 1200 μL for the basolateral (B) side. For apical to basolateral transport study (A-B), 100 μL each was collected from both sides for sample analysis at the start of the assay and then 200 μL was collected from the […] at 90 minutes (end of the study). The same timepoints and amounts were used for the basolateral to apical transport study (B-A).
(§2) The apparent permeability coefficient (Papp) was calculated from the following equation.
(§3) • v=Volume of the receiver cell • A=Exposed surface area (0.64 cm^2) • C=Initial donor concentration • ∂C/∂t=Change in receiver concentration over time
In general terms: Caco-2 monolayers are a common model of the intestinal barrier.

Series [4] can be described thus: Human liver microsome stability. The class given is in vitro ADME. The protocol:
(§4) Mouse/Human liver microsome stability: A liver microsome solution (197.5 μL, 1.27 mg/ml protein concentration) (Sekisui Xenotech, Kansas City, KS) was aliquoted into 1.1 ml tubes, to which 2.5 μL of positive control and compound stock solutions (100 μM in DMSO) were added. The tubes were vortexed gently, pre-incubated for 5 min at 37° C., then 50 μL of 5 mM NADPH or LM buffer (no NADPH buffer) was added into the tubes. For analysis, an aliquot of 15 μL was removed from each tube at 0, 5, 15, 30 and 60 min (without-NADPH reaction: 0, 30 and 60 min) and quenched with 300 μL of 25 ng/ml propranolol in acetonitrile. Samples were vigorously vortexed for 1 min and then centrifuged at 4,000 rpm for 15 min at 4° C. 100 μL of supernatant from each sample was transferred to 0.65 ml tubes for LCMS analysis. The amount of parent compound was determined on the basis of the peak area ratio (compound area to IS area) for each time point. Clearance rates were calculated by the equation: […]
Background: Liver microsomes are vesicles of endoplasmic reticulum, rich in cytochrome P450 enzymes.

A short description of series [5]: Mouse liver microsome stability. The class given is in vitro ADME. The protocol:
as §4

For series [6], the target named is CYP2C19 (Homo sapiens, UniProt P33261). Nature of the series: Human CYP inhibition in human liver microsomes. The settings on record: substrate omeprazole, read-out: CYP inhibition IC50, 2C19. The class given is in vitro ADME. The method, then:
Study samples (containing either control inhibitor or test compound) were added into the tubes, vortexed gently and pre-incubated for 5 min at 37° C. 20 μL of NADPH solution was aliquoted into all tubes, then vortexed to start the reaction and to assure adequate mixture of the NADPH. After mixing, the tubes were incubated for 20 min at 37° C. in a shaking water bath and then quenched in […] formic acid/acetonitrile solution. After quenching, the samples were vortexed vigorously for 1 min and centrifuged at 4,000 rpm for 15 min (4° C.). 100 μL of supernatant was transferred to 0.65 ml tubes for LCMS analysis by the bioanalytical method described earlier. The CYP450 substrates and control inhibitors for each enzyme was as follows: CYP1A2 (phenacetin, naphthoflavone), CYP2C9 (diclofenac, sulfaphenazole), CYP2C19 (omeprazole, tranylcypromine), CYP2D6 (dextromethorphan, quinidine), CYP3A4 (midazolam, ketoconazole).

A short description of series [7]: Caco-2 permeability. The class given is in vitro ADME. As to conditions: human, Caco-2, pH 7.4. The method, then: as §1, §2, §3

Chain of CYP2C19 (P33261 whole entry): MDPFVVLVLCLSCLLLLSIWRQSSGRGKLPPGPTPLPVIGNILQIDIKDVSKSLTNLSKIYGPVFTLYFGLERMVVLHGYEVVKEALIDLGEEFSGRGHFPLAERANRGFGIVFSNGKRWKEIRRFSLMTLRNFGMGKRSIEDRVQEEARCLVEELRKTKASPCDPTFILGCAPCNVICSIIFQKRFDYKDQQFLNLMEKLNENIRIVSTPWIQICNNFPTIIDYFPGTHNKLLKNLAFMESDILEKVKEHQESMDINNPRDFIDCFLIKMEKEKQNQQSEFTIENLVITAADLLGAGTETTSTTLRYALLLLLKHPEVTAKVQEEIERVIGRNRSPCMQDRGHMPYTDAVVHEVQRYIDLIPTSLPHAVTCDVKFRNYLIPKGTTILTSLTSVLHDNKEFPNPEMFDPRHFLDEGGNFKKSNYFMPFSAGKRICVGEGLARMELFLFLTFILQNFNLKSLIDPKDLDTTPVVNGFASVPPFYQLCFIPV

As to `Nc1nc(Nc2ccc(Cl)cc2)nn1S(=O)(=O)c1ccc2ccccc2c1` [Compound 1, N3-(4-chlorophenyl)-1-(2-naphthylsulfonyl)-1,2,4-triazole-3,5-diamine], the “Mouse plasma protein binding” value in series [1] (5 μM, dialysis 5 hours) is above 99.9%. For the same compound, the EC50 (as a rule, the concentration that produces a half-maximal response) in series [2] was 4.84 µM. In series [3] (90 minutes), the “Caco-2 Papp A-B” value is 0.138 ×10⁻⁶ cm/s and the “Caco-2 Papp B-A” value is 0.122 ×10⁻⁶ cm/s. In series [3] (human, Caco-2, 90 min, pH 7.4), the “Caco-2 Efflux ratio” value is on record as “(×10−6 cm/s) Efflux ratio = 0.883”. Further, in series [4], the “Human liver microsomes, stability in words” value was “protein, stable”. In addition, in series [4] (human, liver microsomes, 1 μM), the “Human liver microsomes CLint” value was 2.0 μL/min/mg protein. Further, in series [5], the “Mouse liver microsomes, stability in words” value is recorded as “protein, stable”. Also, the “Mouse liver microsomes CLint” value in series [5] (mouse, liver microsomes, 1 μM) is listed as 10.4 μL/min/mg protein.
With `N#C/C=C/c1ccc2c(S(=O)(=O)n3nc(Nc4ccc(C#N)c(Cl)c4)nc3N)cccc2c1` [Compound 20, 4-[[5-amino-1-[[6-[2-cyanovinyl]-1-naphthyl]sulfonyl]-1,2,4-triazol-3-yl]amino]-2-chloro-benzonitrile], in series [1] (mouse, plasma), the half-life (in general, the time in which the quantity being followed falls by half) at 5 μM was above 6.21 h. Also, the fraction unbound in series [1] (mouse, plasma, pH 7.4, 5 μM, dialysis 5 hours, read-out: Mouse plasma protein binding) is below 0.001. The IC50 (as a rule, the concentration that gives 50% inhibition) in series [6] worked out at 10.6 µM. In addition, in series [2], a half-maximal effect (EC50) was put at 4.06 µM; half-maximal inhibition (IC50) required 1.35 µM; the “disparity between the IC50s for in-cell (TZM-bl) and reverse transcriptase HIV I inhibition” value is 1000 fold. Further, the efflux ratio (in general, a quotient of directional permeabilities that is used to spot active efflux) at 90 min, 10 μM in series [7] was determined as 1. In addition, in series [7] (10 μM, 90 minutes), the Papp A→B (as a rule, how fast a substance crosses the layer from the apical side) at 90 min, 10 μM came to 0.4 ×10⁻⁶ cm/s and the Papp B→A (as a rule, how fast a substance crosses the layer from the basolateral side) at 90 min, 10 μM was 0.4 ×10⁻⁶ cm/s. The “Human liver microsomes, stability in words” value in series [4] is given as “stable”. Besides, in series [4] (human, liver microsomes), the half-life at 1 μM amounted to 0.897 h and the intrinsic clearance (microsomal CLint) (as a rule, a measure of how fast metabolising enzymes remove a compound, apart from limits set by blood flow) at 1 μM was found to be 25.8 µL/min/mg. In addition, the “Mouse liver microsomes, stability in words” value in series [5] is “stable”. For the same compound, in series [5] (mouse, liver microsomes), the half-life at 1 μM amounted to 2.07 h and the microsomal CLint at 1 μM is 11.1 µL/min/mg.

Values taken from patent US20250179033A1 (priority 2021, published 2025).
